These results are taken from PMC6983066, “Real-Time Optical Detection of Isoleucine in Living Cells through a Genetically-Encoded Nanosensor” (Sensors (Basel, Switzerland), 2019).

One assay deals with LivJ. The following applies: LivJ binding protein; no reference given; cited from earlier work.
The subject of assay [1] is T1, GEII nanosensor (ECFP-LivJ-Venus).
T1 construct: His-tag (from pRSET-B); made in house; host or cells: E. coli BL21 (DE3)
Kind of assay: Specificity analysis of purified GEII nanosensor with amino acids and metal ions (Venus/ECFP FRET ratio, microplate). Format: biochemical, E. coli. The conditions noted are these: 1 and 10 mM amino acid, purified sensor. On the procedure: The FRET ratio analysis was performed in 96-well microplate reader using the excitation filter/slits (430/20 nm) and emission filters/slits for ECFP (485/20 nm), and Venus (535/25 nm) respectively. Furthermore, the sensitivity of sensor protein was tested against 10 mM of different metals ions present in the human body i.e., NaCl, CaCl2, MgCl2, and KCl.

Another assay has as its system E. coli BL21(DE3) cells. Briefly: Monitoring of isoleucine in living bacterial cells expressing GEII. Format: cell-based. The following applies: 10 mM amino acid, 45 min. On the procedure: For monitoring of isoleucine in bacterial cells, the E. coli BL21(DE3) containing pRSET-B-GEII were incubated for 48 h at 21 °C. For appropriate protein folding of nanosensor protein, the culture was stored in 4 °C overnight. The bacterial cells were centrifuged and the resultant pellet of the bacterial cells was resuspended in MOPS buffer (20 mM). Twenty microliter 10 mM isoleucine was added to 180 µL resuspended bacterial cell in the wells of microplate. The ratio of fluorescence emission intensities of Venus/ECFP was recorded for 45 min.

On to `CC(C)C[C@H](N)C(=O)O` [Leucine], for which the Kd – broadly, the concentration at which binding is half-saturated – at LivJ was 2300 nM. Moreover, in assay [1], the “change in FRET ratio of GEII with amino acid” value (“change in FRET ratio of GEII” for short) is “only mildly”.

`NCCCC[C@H](N)C(=O)O` [lysine]: the “change in FRET ratio of GEII” value in assay [1] was “minimal”.

For `N[C@@H](CC(=O)O)C(=O)O` [aspartic acid], the “change in FRET ratio of GEII” value in assay [1] is listed as “minimal”. As for `CC(C)[C@H](N)C(=O)O` [Valine], the Kd at LivJ is 4000 nM. Moreover, the “change in FRET ratio of GEII” value in assay [1] is “minimal”. On to `CC[C@H](C)[C@H](N)C(=O)O` [Isoleucine], for which, in the assay with E. coli BL21(DE3) cells, the “FRET ratio change of GEII in E. coli cells” value is listed as “maximum FRET ratio change”. Further, the Kd on LivJ is 900 nM. Also, in assay [1], the “change in FRET ratio of GEII” value is “maximum”. Regarding `NC(=O)CC[C@H](N)C(=O)O` [glutamine], the “change in FRET ratio of GEII” value in assay [1] was “minimal”. Still for that read-out and setting: the value for `CSCC[C@H](N)C(=O)O` [Methionine] was “minimal”; that for `C[C@H](N)C(=O)O` [Alanine] was “minimal”; that for `N[C@@H](CCC(=O)O)C(=O)O` [Glutamate] was “minimal”. On the same count and under the same terms, the result for `NCC(=O)O` [glycine] reads “minimal”. Turning to `NC(=O)C[C@H](N)C(=O)O` [asparagine], the “change in FRET ratio of GEII” value in assay [1] is given as “minimal”. On the same count and under the same terms, the result for `N[C@@H](CO)C(=O)O` [Serine] reads “minimal”; that for `N[C@@H](CS)C(=O)O` [Cysteine], “minimal”; that for `N[C@@H](Cc1c[nH]cn1)C(=O)O` [histidine], “minimal”. The same measure, in the same setting: the value for `N=C(N)NCCC[C@H](N)C(=O)O` [arginine] was “minimal”.
